Data published in patent US7332501B2, “Indol-3-yl-carbonyl-spiro-piperidine derivatives as V1a receptor antagonists” (Hoffmann-La Roche Inc., priority 2005, dated 2008).
pKi: −log10 of the molar value.

Target: T1, human V1a receptor (Homo sapiens, UniProt P37288)
T1 construct: expressed in transfected cells; host or cells: HEK293 cells, transiently transfected; cell membranes
Experiment: human V1a receptor binding (3H-Vasopressin SPA, HEK293 membranes)
Settings: displacement of 4 nM 3H-Vasopressin, membranes of HEK293 cells transiently transfected with human V1a receptor; Ki from IC50 by Cheng-Prussoff
Protocol: The human V1a receptor was cloned by RT-PCR from total human liver RNA. The coding sequence was subcloned in an expression vector after sequencing to confirm the identity of the amplified sequence. […] Cell membranes were prepared from HEK293 cells transiently transfected with the expression vector and grown in 20 liter fermenters with the following protocol.
50 g cells are resuspended in 30 ml freshly prepared ice cold Lysis buffer (50 mM HEPES, 1 mM EDTA, 10 mM MgCl2 adjusted to pH=7.4+complete cocktail of protease inhibitor (Roche Diagnostics)). The cells are homogenized with Polytron for 1 min and sonicated on ice for 2×2 minutes at 80% intensity (Vibracell sonicator). The preparation is centrifuged 20 min at 500 g at 4° C., the pellet is discarded and the supernatant centrifuged 1 hour at 43,000 g at 4° C. (19,000 rpm). The pellet is resuspended in 12.5 ml Lysis buffer+12.5 ml Sucrose 20% and homogenized using a Polytron for 1-2 min. The protein concentration is determined by the Bradford method and aliquots are stored at −80° C. until use. For binding studies 60 mg Yttrium silicate SPA beads (Amersham) are mixed with an aliquot of membrane in binding buffer (50 mM Tris, 120 mM NaCl, 5 mM KCl, 2 mM CaCl2, 10 mM MgCl2) for 15 minutes with mixing. 50 ul of bead/membrane mixture is then added to each well of a 96 well plate, followed by 50 ul of 4 nM 3H-Vasopressin (American Radiolabeled Chemicals). For total binding measurement 100 ul of binding buffer are added to the respective wells, for non-specific binding 100 ul of […] cold vasopressin and for compound testing 100 ul of a serial dilution of each compound in 2% DMSO. The plate is incubated 1 h at room temperature, centrifuged 1 min at 1000 g and counted on a Packard Top-Count. Non-specific binding counts are subtracted from each well and data is normalized to the maximum specific binding set at 100%. To calculate an IC 50 the curve is fitted using a non-linear regression model (XLfit), and the Ki is calculated using the Cheng-Prussoff equation.

T1 sequence (P37288 whole entry): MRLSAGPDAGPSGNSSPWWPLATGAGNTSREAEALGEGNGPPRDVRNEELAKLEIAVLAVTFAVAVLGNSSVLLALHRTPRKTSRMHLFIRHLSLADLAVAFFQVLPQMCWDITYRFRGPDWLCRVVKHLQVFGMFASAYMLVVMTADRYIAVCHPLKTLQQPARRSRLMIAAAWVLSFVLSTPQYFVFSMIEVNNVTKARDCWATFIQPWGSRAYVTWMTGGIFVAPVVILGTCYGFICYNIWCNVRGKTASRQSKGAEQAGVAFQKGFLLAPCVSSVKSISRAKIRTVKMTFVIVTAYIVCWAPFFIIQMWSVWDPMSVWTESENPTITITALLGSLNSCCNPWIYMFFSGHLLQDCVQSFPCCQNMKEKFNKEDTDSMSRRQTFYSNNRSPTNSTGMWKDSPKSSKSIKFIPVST

Compound	pKi
1′-({6-Chloro-1-[(2S)-pyrrolidin-2-ylmethyl]-1H-indol-3-yl}carbonyl)-3H-spiro[2-benzofuran-1,4′-piperidine [Example 267]	8.85
Cc1c(C(=O)N2C[C@H](C)C3(OC(=O)c4ccccc43)[C@@H](C)C2)c2ccccc2n1Cc1ccccc1 (racemic) [Example 15, (SS,RR)-1′-[(1-benzyl-2-methyl-1H-indol-3-yl)carbonyl]-3′,5′-dimethyl-3H-spiro[2-benzofuran-1,4′-piperidin]-3-one]	7.83
Cc1c(C(=O)N2CCC3(C=Cc4ccccc43)CC2)c2ccccc2n1Cc1ccccc1 [Example 1, 1′-[(1-benzyl-2-methyl-1H-indol-3-yl)carbonyl]spiro[indene-1,4′-piperidine]]	8.17
Cc1c(C(=O)N2CCC3(CCc4ccccc43)CC2)c2ccccc2n1Cc1ccccc1 [Example 2, 1′-[(1-benzyl-2-methyl-1H-indol-3-yl)carbonyl]-2,3-dihydrospiro[indene-1,4′-piperidine]]	7.79
O=C(c1cn(Cc2ccccc2)c2ccccc12)N1CCC2(C=Cc3ccccc32)CC1 [Example 3, 1′-[(1-benzyl-1H-indol-3-yl)carbonyl]spiro[indene-1,4′-piperidine]]	8.00
Cc1c(C(=O)N2CCC3(CC2)CNc2ccccc23)c2ccccc2n1Cc1ccccc1 [Example 9, 1′-[(1-benzyl-2-methyl-1H-indol-3-yl)carbonyl]-1,2-dihydrospiro[indole-3,4′-piperidine]]	8.01
Cc1c(C(=O)N2CCC3(CC2)OC(=O)c2ccc(Cl)cc23)c2ccccc2n1Cc1ccccc1 [Example 10, 1′-[(1-benzyl-2-methyl-1H-indol-3-yl)carbonyl]-6-chloro-3H-spiro[2-benzofuran-1,4′-piperidin]-3-one]	7.90
Cc1c(C(=O)N2CCC3(CC2)OC(=O)c2c(F)cccc23)c2ccccc2n1Cc1ccccc1 [Example 11, 1′-[(1-benzyl-2-methyl-1H-indol-3-yl)carbonyl]-4-fluoro-3H-spiro[2-benzofuran-1,4′-piperidin]-3-one]	7.95
COc1ccc2c(c1)C1(CCN(C(=O)c3c(C)n(Cc4ccccc4)c4ccccc34)CC1)OC2=O [Example 12, 1′-[(1-benzyl-2-methyl-1H-indol-3-yl)carbonyl]-6-methoxy-3H-spiro[2-benzofuran-1,4′-piperidin]-3-one]	8.47
COc1ccc2c(c1)C(=O)OC21CCN(C(=O)c2c(C)n(Cc3ccccc3)c3ccccc23)CC1 [Example 13, 1′-[(1-benzyl-2-methyl-1H-indol-3-yl)carbonyl]-5-methoxy-3H-spiro[2-benzofuran-1,4′-piperidin]-3-one]	8.02
Cc1c(C(=O)N2CCC3(CC2)OC(=O)c2cccc(Cl)c23)c2ccccc2n1Cc1ccccc1 [Example 14, 1′-[(1-benzyl-2-methyl-1H-indol-3-yl)carbonyl]-7-chloro-3H-spiro[2-benzofuran-1,4′-piperidin]-3-one]	7.95
Cc1c(C(=O)N2CCC3(CC2)OC(=O)c2cc(F)ccc23)c2ccccc2n1Cc1ccccc1 [Example 23, 1′-[(1-benzyl-2-methyl-1H-indol-3-yl)carbonyl]-5-fluoro-3H-spiro[2-benzofuran-1,4′-piperidin]-3-one]	7.96
CN(C)CCNC(=O)c1[nH]c2cc(Cl)ccc2c1C(=O)N1CCC2(CC1)OC(=O)c1cc(F)ccc12 [Example 26, 6-chloro-N-[2-(dimethylamino)ethyl]-3-[(5-fluoro-3-oxo-1′H,3H-spiro[2-benzofuran-1,4′-piperidin]-1′-yl)carbonyl]-1H-indole-2-carboxamide]	7.40
CN(CCNC(=O)c1[nH]c2cc(Cl)ccc2c1C(=O)N1CCC2(CC1)OC(=O)c1cc(F)ccc12)C(=O)OC(C)(C)C [Example 30, tert-butyl {2-[({6-chloro-3-[(5-fluoro-3-oxo-1′H,3H-spiro[2-benzofuran-1,4′-piperidin]-1′-yl)carbonyl]-1H-indol-2-yl}carbonyl)amino]ethyl}methylcarbamate]	8.24
CCN(CC)C(=O)c1[nH]c2cc(Cl)ccc2c1C(=O)N1CCC2(CC1)OC(=O)c1cc(F)ccc12 [Example 31, 6-chloro-N,N-diethyl-3-[(5-fluoro-3-oxo-1′H,3H-spiro[2-benzofuran-1,4′-piperidin]-1′-yl)carbonyl]-1H-indole-2-carboxamide]	7.91
Cc1c(C(=O)N2CCC3(CC2)OC(=O)c2cc4c(cc23)OCO4)c2ccccc2n1Cc1ccccc1 [Example 34, 1′-[(1-benzyl-2-methyl-1H-indol-3-yl)carbonyl]-7H-spiro[furo[3,4-f][1,3]benzodioxole-5,4′-piperidin]-7-one]	8.68
Cc1c(C(=O)N2CCC3(CC2)OCc2ccccc23)c2ccccc2n1Cc1ccccc1 [Example 39, 1′-[(1-benzyl-2-methyl-1H-indol-3-yl)carbonyl]-3H-spiro[2-benzofuran-1,4′-piperidine]]	8.74

Continued, values first:

pKi	Compound
8.09	O=C(c1c[nH]c2cc(Cl)ccc12)N1CCC2(C=Cc3ccccc32)CC1 [Example 5, 1′-[(6-chloro-1H-indol-3-yl)carbonyl]spiro[indene-1,4′-piperidine]]
7.71	O=C(c1c[nH]c2cc(Cl)ccc12)N1CCC2(CCc3ccccc32)CC1 [Example 6, 1′-[(6-chloro-1H-indol-3-yl)carbonyl]-2,3-dihydrospiro[indene-1,4′-piperidine]]
7.57	O=C(c1c[nH]c2cc(Cl)ccc12)N1CCC2(CC1)CNc1ccccc12 [Example 8, 1′-[(6-chloro-1H-indol-3-yl)carbonyl]-1,2-dihydrospiro[indole-3,4′-piperidine]]
8.36	O=C1OC2(CCN(C(=O)c3c[nH]c4cc(Cl)ccc34)CC2)c2ccccc21 [Example 16, 1′-[(6-chloro-1H-indol-3-yl)carbonyl]-3H-spiro[2-benzofuran-1,4′-piperidin]-3-one]
8.17	O=C1OC2(CCN(C(=O)c3c[nH]c4cc(Cl)ccc34)CC2)c2ccc(F)cc21 [Example 19, 1′-[(6-chloro-1H-indol-3-yl)carbonyl]-5-fluoro-3H-spiro[2-benzofuran-1,4′-piperidin]-3-one]
7.80	O=C1OC2(CCN(C(=O)c3c[nH]c4cc(Cl)ccc34)CC2)c2cc(Cl)ccc21 [Example 20, 6-chloro-1′-[(6-chloro-1H-indol-3-yl)carbonyl]-3H-spiro[2-benzofuran-1,4′-piperidin]-3-one]
7.48	CC1CCN(C(=O)c2[nH]c3cc(Cl)ccc3c2C(=O)N2CCC3(CC2)OC(=O)c2cc(F)ccc23)CC1 [Example 24, 1′-({6-chloro-2-[(4-methylpiperidin-1-yl)carbonyl]-1H-indol-3-yl}carbonyl)-5-fluoro-3H-spiro[2-benzofuran-1,4′-piperidin]-3-one]
7.69	NC(=O)c1[nH]c2cc(Cl)ccc2c1C(=O)N1CCC2(CC1)OC(=O)c1cc(F)ccc12 [Example 25, 6-chloro-3-[(5-fluoro-3-oxo-1′H,3H-spiro[2-benzofuran-1,4′-piperidin]-1′-yl)carbonyl]-1H-indole-2-carboxamide]
8.00	CN(C)C(=O)c1[nH]c2cc(Cl)ccc2c1C(=O)N1CCC2(CC1)OC(=O)c1cc(F)ccc12 [Example 29, 6-chloro-3-[(5-fluoro-3-oxo-1′H,3H-spiro[2-benzofuran-1,4′-piperidin]-1′-yl)carbonyl]-N,N-dimethyl-1H-indole-2-carboxamide]
7.56	CN1CCN(C(=O)c2[nH]c3cc(Cl)ccc3c2C(=O)N2CCC3(CC2)OC(=O)c2cc(F)ccc23)CC1 [Example 32, 1′-({6-chloro-2-[(4-methylpiperazin-1-yl)carbonyl]-1H-indol-3-yl}carbonyl)-5-fluoro-3H-spiro[2-benzofuran-1,4′-piperidin]-3-one]
7.97	O=C1OC2(CCN(C(=O)c3c(C(=O)N4CCCCC4)[nH]c4cc(Cl)ccc34)CC2)c2ccc(F)cc21 [Example 33, 1′-{[6-chloro-2-(piperidin-1-ylcarbonyl)-1H-indol-3-yl]carbonyl}-5-fluoro-3H-spiro[2-benzofuran-1,4′-piperidin]-3-one]
8.60	N#CCCn1cc(C(=O)N2CCC3(CC2)OC(=O)c2ccccc23)c2ccc(Cl)cc21 [Example 35, 3-{6-chloro-3-[(3-oxo-1′H,3H-spiro[2-benzofuran-1,4′-piperidin]-1′-yl)carbonyl]-1H-indol-1-yl}propanenitrile]
8.20	N#CCn1cc(C(=O)N2CCC3(CC2)OC(=O)c2ccccc23)c2ccc(Cl)cc21 [Example 37, {6-chloro-3-[(3-oxo-1′H,3H-spiro[2-benzofuran-1,4′-piperidin]-1′-yl)carbonyl]-1H-indol-1-yl}acetonitrile]
